Reference: paper PMC8705904, “Structural Bases for Hesperetin Derivatives: Inhibition of Protein Tyrosine Phosphatase 1B, Kinetics Mechanism and Molecular Docking Study” (Molecules, 2021)

Legend:
[1] = target: T1, PTP1B (human recombinant) (Homo sapiens, UniProt P18031); test: PTP1B inhibitory assay using pNPP; format: biochemical; details: for IC50: mean ± S.E.M of triplicate experiments, substrate pNPP
T1 construct: purchased Biomol International LP (Plymouth Meeting, PA, USA)
T1 sequence (P18031 1-435): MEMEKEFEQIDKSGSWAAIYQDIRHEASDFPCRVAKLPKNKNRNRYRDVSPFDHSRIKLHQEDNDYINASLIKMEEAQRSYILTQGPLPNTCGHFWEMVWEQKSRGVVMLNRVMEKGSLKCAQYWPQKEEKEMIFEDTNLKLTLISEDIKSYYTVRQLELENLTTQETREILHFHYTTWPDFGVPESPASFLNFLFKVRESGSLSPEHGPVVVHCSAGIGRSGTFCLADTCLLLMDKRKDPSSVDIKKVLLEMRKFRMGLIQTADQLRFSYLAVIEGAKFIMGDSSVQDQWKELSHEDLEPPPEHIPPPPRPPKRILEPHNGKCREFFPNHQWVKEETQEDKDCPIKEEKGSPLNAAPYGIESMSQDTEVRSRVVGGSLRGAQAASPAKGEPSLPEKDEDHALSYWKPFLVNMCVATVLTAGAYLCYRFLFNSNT
Procedure: (§1) The PTP1B inhibitory activity was evaluated using pNPP according to the work of Jung et al.. In each well of a 96-well plate (each with a final volume of 100 µL), 40 µL of PTP1B enzyme [0.5 units diluted with a PTP1B reaction buffer containing 50 mM citrate (pH 6.0), 0.1 M NaCl, 1 mM EDTA, and 1 mM DTT] was added with or without the sample dissolved in 10% DMSO. The plate was preincubated at 37 °C for 10 min and then 50 µL of 2 mM pNPP in the PTP1B reaction buffer was added. Following incubation at 37 °C for 20 min, the reaction was terminated by the addition of 10 M NaOH. […] The inhibition percentage was obtained using the following equation: % inhibition = (Ac − As)/Ac × 100, where Ac is the absorbance of the control and As is the absorbance of the sample.

[2] = target: T1, PTP1B (human recombinant); test: Kinetic analysis of PTP1B inhibition (Lineweaver–Burk and Dixon plots); format: biochemical; details: for Ki: determined by Dixon plots; for PTP1B type of inhibition: determined by Lineweaver–Burk plots, pNPP 0.5, 1.0 and 2.0 mM
Procedure: as §1
To determine the kinetic mechanism, two kinetic methods using Lineweaver–Burk and Dixon plots were complementarily used. […] The enzymatic inhibitions of the test flavonoids were evaluated by monitoring the effects of different concentrations of the […] in the Dixon plots (single reciprocal plot). The enzymatic procedure consisted of the same, aforementioned, PTP1B assay method. The inhibition constants (Ki) were determined by interpretation of the Dixon plots, where the value of the x-axis implies -Ki.

| Compound | IC50 [1] | Ki [2] | PTP1B type of inhibition [2] | PTP1B type of inhibition ([2]; listed as hesperetin 5-O-glucoside) | PTP1B inhibitory activity (in words) [1] | PTP1B type of inhibition ([2]; listed as hesperetin) | PTP1B type of inhibition ([2]; listed as neohesperidin) | PTP1B type of inhibition ([2]; listed as hesperidin) |
| --- | --- | --- | --- | --- | --- | --- | --- | --- |
| COc1ccc(C2CC(=O)c3c(O)cc(OC4OC(CO)C(O)C(O)C4O)cc3O2)cc1O (stereo not drawn) [Hesperetin 7-O-glucoside] | > 300 µM |  |  |  | inactive |  |  |  |
| COc1ccc(C2CC(=O)c3c(O)cc(OC4OC(COC5OC(C)C(O)C(O)C5O)C(O)C(O)C4O)cc3O2)cc1O (stereo not drawn) [Hesperidin, hesperetin 7-O-rutinoside] | 58.1 ± 4.18 µM | 50 µM | Mixed |  |  |  |  | mixed-type inhibition |

Further lines, with some results ahead:

| IC50 [1] | Ki [2] | PTP1B type of inhibition [2] | PTP1B type of inhibition ([2]; listed as hesperetin 5-O-glucoside) | PTP1B inhibitory activity (in words) [1] | PTP1B type of inhibition ([2]; listed as hesperetin) | PTP1B type of inhibition ([2]; listed as neohesperidin) | Compound | PTP1B type of inhibition ([2]; listed as hesperidin) |
| --- | --- | --- | --- | --- | --- | --- | --- | --- |
| 37.14 ± 0.07 µM | 81.6 µM | Mixed | mixed-type inhibition |  |  |  | COc1ccc(C2CC(=O)c3c(cc(O)cc3OC3OC(CO)C(O)C(O)C3O)O2)cc1O (stereo not drawn) [Hesperetin 5-O-glucoside] |  |
| 288 ± 7.98 µM | 295 µM | Uncompetitive |  |  | uncompetitive-type inhibition |  | COc1ccc([C@@H]2CC(=O)c3c(O)cc(O)cc3O2)cc1O [Hesperetin] |  |
| 144 ± 3.04 µM | 154 µM | Uncompetitive |  |  |  | uncompetitive-type inhibition | COc1ccc(C2CC(=O)c3c(O)cc(OC4OC(CO)C(O)C(O)C4OC4OC(C)C(O)C(O)C4O)cc3O2)cc1O (stereo not drawn) [Neohesperidin, hesperetin 7-O-neohesperidoside] |  |
